Legend:
Experiment in all cases: Ba/F3 drug screening, Cell Titer Glo, IC50 Mut/WT
Type in all cases: cell-based
EGFR L718V = molecular target: T1, EGFR L718V (Homo sapiens, UniProt P00533, L718V); conditions: Ba/F3 cells, EGFR L718V (PACC), Mut/WT
T1 construct: expressed in transfected cells; host or cells: Ba/F3

EGFR S784F = molecular target: T2, EGFR S784F (Homo sapiens, UniProt P00533, S784F); conditions: Classical-Like, 72 hours
T2 construct: expressed in transfected cells; host or cells: Ba/F3 cells, retroviral pBabe-Puro vector (vector made by GeneScript from EGFR WT)
Description: (§1) Data represent the ratio of the IC50 value for a given TKI for cells with a classical-like EGFR mutation to the IC50 value for cells with wildtype EGFR.
(§2) Ba/F3 cell generation, drug screening, and IC50 approximations. Ba/F3 cells were obtained as a gift from Dr. Gordon Mills (MD Anderson Cancer Center), and maintained in RPMI (Sigma) containing 10% FBS, 1% penicillin/streptomycin, and 10 ng/ml recombinant mIL-3 (R&D Biosystems). To establish stable Ba/F3 cell lines, Ba/F3 cells were transduced with retroviruses containing mutant EGFR plasmids for 12-24 hours.
(§3) After 48-72 hours of transduction, 2 μg/ml puromycin (Invitrogen) was added to Ba/F3 cell lines in complete RPMI. To select for EGFR positive cell lines, cells were stained with PE-EGFR (Biolegend) and sorted by FACS. After sorting, EGFR positive cells were maintained in RPMI containing 10% FBS, 1% penicillin/streptomycin, and 1 ng/ml EGF to support cell viability. […] Shortly, cells were plated in 384-well plates (Greiner Bio-One) at 2000-3000 cells per well in technical triplicate. Seven different concentrations of TKIs or DMSO vehicle were added to reach a final volume of 40 μL per well. After 72 hours, 11 μL of Cell Titer Glo (Promega) was added to each well. Plates were incubated for a minimum of 10 minutes, and bioluminescence was determined using a FLUOstar OPTIMA plate reader (BMG LABTECH). Raw bioluminescence values were normalized to DMSO control treated cells, and values were plotted in GraphPad Prism. […] Drug screens were performed in technical triplicate on each plate and either duplicate or triplicate biological replicates.

EGFR Ex19del T854I = molecular target: T3, EGFR Ex19del T854I (Homo sapiens, UniProt P00533, DEL746-750/T854I); conditions: Ba/F3 cells, EGFR Ex19del T854I (PACC), Mut/WT
T3 construct: expressed in transfected cells; host or cells: Ba/F3 (retroviral transduction, pBabe-Puro based vectors)
Description: (§4) Data represent the ratio of the IC50 value for a given TKI for cells with a PACC EGFR mutation to the IC50 value for cells with wildtype EGFR.
as §2
(§5) After 48-72 hours of transduction, 2 μg/ml puromycin (Invitrogen) was added to Ba/F3 cell lines in complete RPMI. To select for EGFR positive cell lines, cells were stained with PE-EGFR (Biolegend) and sorted by FACS. After sorting, EGFR positive cells were maintained in RPMI containing 10% FBS, 1% penicillin/streptomycin, and 1 ng/ml EGF to support cell viability. Drug screening was performed as previously described^41,42. Shortly, cells were plated in 384-well plates (Greiner Bio-One) at 2000-3000 cells per well in technical triplicate. Seven different concentrations of TKIs or DMSO vehicle were added to reach a final volume of 40 μL per well. After 72 hours, 11 μL of Cell Titer Glo (Promega) was added to each well. Plates were incubated for a minimum of 10 minutes, and bioluminescence was determined using a FLUOstar OPTIMA plate reader (BMG LABTECH). Raw bioluminescence values were normalized to DMSO control treated cells, and values were plotted in GraphPad Prism. […] Drug screens were performed in technical triplicate on each plate and either duplicate or triplicate biological replicates.

EGFR L858R/L718V = molecular target: T4, EGFR L858R/L718V (Homo sapiens, UniProt P00533, L718V/L858R); conditions: Ba/F3 cells, EGFR L858R/L718V (PACC), Mut/WT
T4 construct: host or cells: Ba/F3

EGFR E709K = molecular target: T5, EGFR E709K (Homo sapiens, UniProt P00533, E709K); conditions: Ba/F3 cells, EGFR E709K (PACC), Mut/WT
T5 construct: expressed in transfected cells; host or cells: Ba/F3
Description: as §4, §2, §5

EGFR D770insNPG = molecular target: T6, EGFR D770insNPG (Homo sapiens, UniProt P00533, INS770NPG); conditions: Ex20, 72 hours
T6 construct: expressed in transfected cells; host or cells: Ba/F3 cells, retroviral pBabe-Puro vector

EGFR L747S = molecular target: T7, EGFR L747S (Homo sapiens, UniProt P00533, L747S); conditions: Ba/F3 cells, EGFR L747S (PACC), Mut/WT
T7 construct: expressed in transfected cells; host or cells: Ba/F3
Description: as §4, §2, §5

EGFR L858R/V834L = molecular target: T8, EGFR L858R/V834L (Homo sapiens, UniProt P00533, L858R/V834L); conditions: Classical-Like, 72 hours
T8 construct: expressed in transfected cells; host or cells: Ba/F3 cells, retroviral pBabe-Puro vector

EGFR G719A = molecular target: T9, EGFR G719A (Homo sapiens, UniProt P00533, G719A); conditions: Ba/F3 cells, EGFR G719A (PACC), Mut/WT
T9 construct: expressed in transfected cells; host or cells: Ba/F3

EGFR L858R/L792H = molecular target: T10, EGFR L858R/L792H (Homo sapiens, UniProt P00533, L792H/L858R); conditions: Ba/F3 cells, EGFR L858R/L792H (PACC), Mut/WT
T10 construct: expressed in transfected cells; host or cells: Ba/F3

EGFR E709_T710del insD = molecular target: T11, EGFR E709_T710del insD (Homo sapiens, UniProt P00533, DEL709-709/T710D); conditions: Ba/F3 cells, EGFR E709_T710del insD (PACC), Mut/WT
T11 construct: expressed in transfected cells; host or cells: Ba/F3
Description: as §4, §2, §5

EGFR T725M = molecular target: T12, EGFR T725M (Homo sapiens, UniProt P00533, T725M); conditions: Classical-Like, 72 hours
T12 construct: expressed in transfected cells; host or cells: Ba/F3 cells, retroviral pBabe-Puro vector (vector made by GeneScript from EGFR WT)
Description: as §1, §2, §3

EGFR G719S = molecular target: T13, EGFR G719S (Homo sapiens, UniProt P00533, G719S); conditions: Ba/F3 cells, EGFR G719S (PACC), Mut/WT
T13 construct: expressed in transfected cells; host or cells: Ba/F3
Description: as §4, §2, §5

EGFR L858R/T790M = molecular target: T14, EGFR L858R/T790M (Homo sapiens, UniProt P00533, L858R/T790M); conditions: T790M-like-3S, 72 hours
T14 construct: expressed in transfected cells; host or cells: Ba/F3
Description: Data represent the ratio of the IC50 value for a given TKI for cells with a T790M-like-3S EGFR mutation to the IC50 value for cells with wildtype EGFR.
as §2, §5

EGFR L858R/C797S = molecular target: T15, EGFR L858R/C797S (Homo sapiens, UniProt P00533, C797S/L858R); conditions: Ba/F3 cells, EGFR L858R/C797S (PACC), Mut/WT
T15 construct: expressed in transfected cells; host or cells: Ba/F3

EGFR Ex19del = molecular target: T16, EGFR Ex19del (Homo sapiens, UniProt P00533, DEL746-750); conditions: Classical-Like, 72 hours
T16 construct: expressed in transfected cells; host or cells: Ba/F3 cells, retroviral pBabe-Puro vector

EGFR A763insLQEA = molecular target: T17, EGFR A763insLQEA (Homo sapiens, UniProt P00533, INS763LQEA); conditions: Classical-Like, 72 hours
T17 construct: expressed in transfected cells; host or cells: Ba/F3 cells, retroviral pBabe-Puro vector

EGFR G719A L861Q = molecular target: T18, EGFR G719A L861Q (Homo sapiens, UniProt P00533, G719A/L861Q); conditions: Ba/F3 cells, EGFR G719A L861Q (PACC), Mut/WT
T18 construct: expressed in transfected cells; host or cells: Ba/F3

EGFR L858R = molecular target: T19, EGFR L858R (Homo sapiens, UniProt P00533, L858R); conditions: Classical-Like, 72 hours
T19 construct: expressed in transfected cells; host or cells: Ba/F3 cells, retroviral pBabe-Puro vector

EGFR S768I V774M = molecular target: T20, EGFR S768I V774M (Homo sapiens, UniProt P00533, S768I/V774M); conditions: Ba/F3 cells, EGFR S768I V774M (PACC), Mut/WT
T20 construct: host or cells: Ba/F3

EGFR S811F = molecular target: T21, EGFR S811F (Homo sapiens, UniProt P00533, S811F); conditions: Classical-Like, 72 hours
T21 construct: expressed in transfected cells; host or cells: Ba/F3 cells, retroviral pBabe-Puro vector (vector made by GeneScript from EGFR WT)

EGFR Ex19del G724S = molecular target: T22, EGFR Ex19del G724S (Homo sapiens, UniProt P00533, DEL746-750/G724S); conditions: Ba/F3 cells, EGFR Ex19del G724S (PACC), Mut/WT
T22 construct: expressed in transfected cells; host or cells: Ba/F3

EGFR A767insASV = molecular target: T23, EGFR A767insASV (Homo sapiens, UniProt P00533, DUP767-769); conditions: Ex20, 72 hours
T23 construct: expressed in transfected cells; host or cells: Ba/F3 cells, retroviral pBabe-Puro vector
Description: Data represent the ratio of the IC50 value for a given TKI for cells with an ex20ins EGFR mutation to the IC50 value for cells with wildtype EGFR.
as §2
(§6) After 48-72 hours of transduction, 2 μg/ml puromycin (Invitrogen) was added to Ba/F3 cell lines in complete RPMI. To select for EGFR positive cell lines, cells were stained with PE-EGFR (Biolegend) and sorted by FACS. After sorting, EGFR positive cells were maintained in RPMI containing 10% FBS, 1% penicillin/streptomycin, and 1 ng/ml EGF to support cell viability. Drug screening was performed as previously described^41,42. Shortly, cells were plated in 384-well plates (Greiner Bio-One) at 2000-3000 cells per well in technical triplicate. Seven different concentrations of TKIs or DMSO vehicle were added to reach a final volume of 40 μL per well. After 72 hours, 11 μL of Cell Titer Glo (Promega) was added to each well. Plates were incubated for a minimum of 10 minutes, and bioluminescence was determined using a FLUOstar OPTIMA plate reader (BMG LABTECH). Raw bioluminescence values were normalized to DMSO control treated cells, and values were plotted in GraphPad Prism. […] Drug screens were performed in technical triplicate on each plate and either duplicate or triplicate biological replicates. […] Statistical differences between groups were determined by ANOVA as described in the figure legends.

EGFR K757R = molecular target: T24, EGFR K757R (Homo sapiens, UniProt P00533, K757R); conditions: Ba/F3 cells, EGFR K757R (PACC), Mut/WT
T24 construct: expressed in transfected cells; host or cells: Ba/F3
Description: as §4, §2, §6

Row | ratio of the IC50 value for cells with a PACC EGFR mutation to the IC50 value for cells with wildtype EGFR (EGFR L718V) | ratio of IC50 for cells with mutant EGFR to IC50 for cells with wildtype EGFR (Mut/WT) (EGFR S784F) | ratio of the IC50 value for cells with a PACC EGFR mutation to the IC50 value for cells with wildtype EGFR (EGFR Ex19del T854I) | ratio of the IC50 value for cells with a PACC EGFR mutation to the IC50 value for cells with wildtype EGFR (EGFR L858R/L718V) | ratio of the IC50 value for cells with a PACC EGFR mutation to the IC50 value for cells with wildtype EGFR (EGFR E709K) | ratio of IC50 for cells with mutant EGFR to IC50 for cells with wildtype EGFR (Mut/WT) (EGFR D770insNPG) | ratio of the IC50 value for cells with a PACC EGFR mutation to the IC50 value for cells with wildtype EGFR (EGFR L747S) | ratio of IC50 for cells with mutant EGFR to IC50 for cells with wildtype EGFR (Mut/WT) (EGFR L858R/V834L) | ratio of the IC50 value for cells with a PACC EGFR mutation to the IC50 value for cells with wildtype EGFR (EGFR G719A) | ratio of the IC50 value for cells with a PACC EGFR mutation to the IC50 value for cells with wildtype EGFR (EGFR L858R/L792H) | ratio of the IC50 value for cells with a PACC EGFR mutation to the IC50 value for cells with wildtype EGFR (EGFR E709_T710del insD) | ratio of IC50 for cells with mutant EGFR to IC50 for cells with wildtype EGFR (Mut/WT) (EGFR T725M) | ratio of the IC50 value for cells with a PACC EGFR mutation to the IC50 value for cells with wildtype EGFR (EGFR G719S) | ratio of IC50 for cells with mutant EGFR to IC50 for cells with wildtype EGFR (Mut/WT) (EGFR L858R/T790M) | ratio of the IC50 value for cells with a PACC EGFR mutation to the IC50 value for cells with wildtype EGFR (EGFR L858R/C797S) | ratio of IC50 for cells with mutant EGFR to IC50 for cells with wildtype EGFR (Mut/WT) (EGFR Ex19del) | ratio of IC50 for cells with mutant EGFR to IC50 for cells with wildtype EGFR (Mut/WT) (EGFR A763insLQEA) | ratio of the IC50 value for cells with a PACC EGFR mutation to the IC50 value for cells with wildtype EGFR (EGFR G719A L861Q) | ratio of IC50 for cells with mutant EGFR to IC50 for cells with wildtype EGFR (Mut/WT) (EGFR L858R) | ratio of the IC50 value for cells with a PACC EGFR mutation to the IC50 value for cells with wildtype EGFR (EGFR S768I V774M) | Structure (SMILES) | other results
1 | 0.5426 | 0.3727 | 1.06 | 3.358 | 0.2663 | 1.296 | 0.8911 | 0.05339 | 0.1344 | 0.2624 | 0.497 | 0.5761 | 0.2727 | 0.01398 | 5.266 | 0.006035 | 0.3419 | 0.03136 | 0.07863 | 0.4917 | C=CC(=O)N1CC[C@@H](Oc2nc(Nc3ccc(N4CCC(N5CCN(C)CC5)CC4)cc3)c(C(N)=O)nc2CC)C1 [Naquotinib] | ratio of IC50 for cells with mutant EGFR to IC50 for cells with wildtype EGFR (Mut/WT) (EGFR S811F): 0.0351; ratio of the IC50 value for cells with a PACC EGFR mutation to the IC50 value for cells with wildtype EGFR (EGFR Ex19del G724S): 0.8866; ratio of IC50 for cells with mutant EGFR to IC50 for cells with wildtype EGFR (Mut/WT) (EGFR A767insASV): 1.61; ratio of the IC50 value for cells with a PACC EGFR mutation to the IC50 value for cells with wildtype EGFR (EGFR K757R): 1.658
2 | 1.157 | 0.03107 | 1.135 | 1.03 | 0.0309 | 0.529 | 0.06302 | 0.01123 | 0.06775 | 0.3145 | 0.1584 | 0.04541 | 0.08165 | 0.01957 | 3.46 | 0.0005409 | 0.05507 | 0.06344 | 0.017 | 0.09563 | Cc1cc(C(=O)Nc2nc3cccc(Cl)c3n2[C@@H]2CCCCN(C(=O)/C=C/CN(C)C)C2)ccn1 [Nazartinib] | ratio of IC50 for cells with mutant EGFR to IC50 for cells with wildtype EGFR (Mut/WT) (EGFR S811F): 0.00115; ratio of the IC50 value for cells with a PACC EGFR mutation to the IC50 value for cells with wildtype EGFR (EGFR Ex19del G724S): 1.068; ratio of IC50 for cells with mutant EGFR to IC50 for cells with wildtype EGFR (Mut/WT) (EGFR A767insASV): 0.6382; ratio of the IC50 value for cells with a PACC EGFR mutation to the IC50 value for cells with wildtype EGFR (EGFR K757R): 0.3486
3 | 0.139 | 0.14 | 1.31 | 0.8629 | 0.05562 | 0.31 | 0.06291 | 0.006716 | 0.141 | 0.1405 | 0.2299 | 0.03664 | 0.214 | 0.0007936 | 2.242 | 0.0008432 | 0.07483 | 0.07388 | 0.01716 | 0.1109 | C=CC(=O)Nc1cccc(Oc2nc(Nc3ccc(N4CCN(C)CC4)cc3)nc3ccsc23)c1 [Olmutinib] | ratio of IC50 for cells with mutant EGFR to IC50 for cells with wildtype EGFR (Mut/WT) (EGFR S811F): 0.0307; ratio of the IC50 value for cells with a PACC EGFR mutation to the IC50 value for cells with wildtype EGFR (EGFR Ex19del G724S): 0.268; ratio of IC50 for cells with mutant EGFR to IC50 for cells with wildtype EGFR (Mut/WT) (EGFR A767insASV): 0.6792; ratio of the IC50 value for cells with a PACC EGFR mutation to the IC50 value for cells with wildtype EGFR (EGFR K757R): 0.1439
